# Measurements reported in patent publication US11912742B2, “Heterologous production of leupeptin protease inhibitors and analogs thereof” (YALE UNIVERSITY, priority 2020, dated 2024).
# Where a SMILES comes first, the peptide text is derived from it.
# How the values were obtained:
# [1] = Spontaneous conversion of pro-pyrazinones under aerobic conditions; type: physicochemical
# calpain protease = conditions: cited from earlier work
# [2] = system: chymotrypsin-type proteases; conditions: previously synthesized molecules; cited from earlier work
# trypsin-like proteases = conditions: cited from earlier work
# [3] = cited from earlier work
# Plu4509 = assay: In vitro enzyme assay of purified Plu4509 with leupeptin as substrate; type: biochemical, P. luminescens; conditions: His6x-tagged Plu4509; end point analysis; 1 h, 35° C.
structure (smiles),measurement,setting,value
CC(C)C[C@@H]1N[C@@H]2N=C(N)N3CCC[C@]23NC1=O [compound 10],stability under aerobic conditions (conversion to pyrazinone),[1],spontaneously converted to their pyrazinone counterpart 11
CC(C)Cc1ncc(Cc2ccc(O)cc2)[nH]c1=O [lumizinone A],calpain protease inhibition,calpain protease,calpain protease inhibitor
CC(C)C[C@@H]1N[C@@H]2N=C(N)N3CCC[C@@]23NC1=O [compound 9],stability under aerobic conditions (conversion to pyrazinone),[1],spontaneously converted to their pyrazinone counterpart 11
CC(=O)N[C@@H](CC(C)C)C(=O)N[C@@H](CC(C)C)C(=O)N[C@H](C=O)Cc1ccc(O)cc1 [leupeptin B] (Ac-Leu-Leu-Tyr-aldehyde),inhibition of chymotrypsin-type proteases,[2],confirmed to inhibit chymotrypsin-type proteases
"CC(=O)N[C@@H](CC(C)C)C(=O)N[C@@H](CC(C)C)C(=O)N[C@H](C=O)CCCNC(=N)N [leupeptin A, N-Acetyl-L-leucyl-L-leucyl-L-argininal]",inhibition of trypsin-like proteases,trypsin-like proteases,inhibits trypsin-like proteases
same,toxicity in humans,[3],very low toxicity
same,cleavage by Plu4509: production of metabolites 10 and 11 from the substrate,Plu4509,significantly enhanced production of 10 and 11
CC(=O)NC(CC(C)C)C(=O)NC(CC(C)C)C(=O)NC(C=O)Cc1ccccc1 (stereo not drawn) [leupeptin C] (Ac-Leu-Leu-Phe-aldehyde; configuration not given here),inhibition of chymotrypsin-type proteases,[2],confirmed to inhibit chymotrypsin-type proteases
